Laboratory results taken from US8735414B2 (priority 2009, dated 2014).

Legend:
[1] = system: bicistronic HCV replicon (replicon RNA, GenBank Accession No. AJ242654); assay: HCV Replicon Assay; format: cell-based; conditions: Hepatitis C virus, 72 h, read-out: Replicon IC50

SMILES	IC50 [1] [nM]	melting point [°C]
C[C@@H](NS(=O)(=O)c1ccc(-c2c(C#N)c3cc(F)c(OC(F)F)cc3n2C2CCCC2)nc1)C(F)(F)F [compound 713, 6-[3-cyano-1-cyclopentyl-6-(difluoromethoxy)-5-fluoro-1H-indol-2-yl]-N-[(2R)-1,1,1-trifluoropropan-2-yl]pyridine-3-sulfonamide]	< 500	197 to 200
Cc1cc2c(cc1F)c(C(N)=O)c(-c1ccc(S(=O)(=O)N[C@H](C)C(F)(F)F)cn1)n2C1CCCC1 [compound 699, 1-cyclopentyl-5-fluoro-6-methyl-2-(5-{[(2R)-1,1,1-trifluoropropan-2-yl]sulfamoyl}pyridin-2-yl)-1H-indole-3-carboxamide]	< 500	243 to 245
N#Cc1c(-c2ccc(S(=O)(=O)NC(CF)CF)cn2)n(C2CCCCC2)c2ccc(F)cc12 [compound 104, 6-(3-cyano-1-cyclohexyl-5-fluoro-1H-indol-2-yl)-N-(1,3-difluoropropan-2-yl)pyridine-3-sulfonamide]	< 500	138 to 141
Cc1ccc2c(c1)c(C#N)c(-c1ncc(S(=O)(=O)NC(C)C)cn1)n2C1CCCCC1 [compound 200, 2-(3-cyano-1-cyclohexyl-5-methyl-1H-indol-2-yl)-N-(propan-2-yl)pyrimidine-5-sulfonamide]	500 to 2000	183 to 188
C[C@H](NS(=O)(=O)c1cnc(-c2c(C#N)c3ccc(F)cc3n2CC2CC2)nc1)C1CC1 [compound 498, 2-[3-cyano-1-(cyclopropylmethyl)-6-fluoro-1H-indol-2-yl]-N-[(1S)-1-cyclopropylethyl]pyrimidine-5-sulfonamide]	500 to 2000	198 to 199
CCn1c(-c2ccc(N(CC(F)F)S(=O)(=O)C3CC3)nc2)c(C#N)c2ccc(OC(C)C)cc21 [compound 292, N-{5-[3-cyano-1-ethyl-6-(propan-2-yloxy)-1H-indol-2-yl]pyridin-2-yl}-N-(2,2-difluoroethyl)cyclopropanesulfonamide]	500 to 2000	232 to 235
N#Cc1c(-c2ccc(S(=O)(=O)NC3(C(F)(F)F)CC3)cn2)n(-c2ccc(F)cc2)c2cc(OC(F)F)ccc12 [compound 664, 6-[3-cyano-6-(difluoromethoxy)-1-(4-fluorophenyl)-1H-indol-2-yl]-N-[1-(trifluoromethyl)cyclopropyl]pyridine-3-sulfonamide]	< 500	195 to 198
CCc1cc2c(cc1F)c(C(N)=O)c(-c1ccc(S(=O)(=O)N[C@@H](C)C(F)(F)F)cn1)n2-c1cc(C)ccn1 [compound 980, 6-ethyl-5-fluoro-1-(4-methylpyridin-2-yl)-2-(5-{[(2S)-1,1,1-trifluoropropan-2-yl]sulfamoyl}pyridin-2-yl)-1H-indole-3-carboxamide]	500 to 2000	137 to 145
CC(C)NS(=O)(=O)c1cnc(-c2c(C#N)c3ccc(CC(F)F)cc3n2C2CCCC2)nc1 [compound 598, 2-[3-cyano-1-cyclopentyl-6-(2,2-difluoroethyl)-1H-indol-2-yl]-N-(propan-2-yl)pyrimidine-5-sulfonamide]	< 500	204 to 218
Cc1cc2c(cc1O)c(C#N)c(-c1ccc(S(=O)(=O)NC(C)(C)C)cn1)n2C1CCC1 [compound 805, N-tert-butyl-6-(3-cyano-1-cyclobutyl-5-hydroxy-6-methyl-1H-indol-2-yl)pyridine-3-sulfonamide]	500 to 2000	211 to 213
Cc1ccc2c(C#N)c(-c3ccc(S(=O)(=O)N[C@H](C)C(F)(F)F)cn3)n(C3CCCCC3)c2c1 [compound 213, 6-(3-cyano-1-cyclohexyl-6-methyl-1H-indol-2-yl)-N-[(2R)-1,1,1-trifluoropropan-2-yl]pyridine-3-sulfonamide]	< 500	208 to 212
CC(C)NS(=O)(=O)c1cnc(-c2c(C#N)c3ccc(F)cc3n2C2CCCCC2)nc1 [compound 251, 2-(3-cyano-1-cyclohexyl-6-fluoro-1H-indol-2-yl)-N-(propan-2-yl)pyrimidine-5-sulfonamide]	500 to 2000	200 to 202
C[C@H](NS(=O)(=O)c1cnc(-c2c(C#N)c3ccc(C4CC4)cc3n2C2CCCC2)nc1)C1CC1 [compound 254, 2-(3-cyano-1-cyclopentyl-6-cyclopropyl-1H-indol-2-yl)-N-[(1S)-1-cyclopropylethyl]pyrimidine-5-sulfonamide]	500 to 2000	185 to 189
Cc1cc2c(cc1F)c(C#N)c(-c1ccc(S(=O)(=O)N[C@@H](C)C(F)(F)F)cn1)n2-c1ncc(Cl)cn1 [compound 914, 6-[1-(5-chloropyrimidin-2-yl)-3-cyano-5-fluoro-6-methyl-1H-indol-2-yl]-N-[(2S)-1,1,1-trifluoropropan-2-yl]pyridine-3-sulfonamide]	< 500	213 to 218
N#Cc1c(-c2ccc(S(=O)(=O)NC(CF)CF)cn2)n(C2CCC2)c2cc(Cl)c(F)cc12 [compound 50, 6-(6-chloro-3-cyano-1-cyclobutyl-5-fluoro-1H-indol-2-yl)-N-(1,3-difluoropropan-2-yl)pyridine-3-sulfonamide]	< 500	211 to 213
Cc1cc2c(cc1F)c(C(N)=O)c(-c1ccc(S(=O)(=O)NC(C)(C)C)cn1)n2C1CCC1 [compound 800, 2-[5-(tert-butylsulfamoyl)pyridin-2-yl]-1-cyclobutyl-5-fluoro-6-methyl-1H-indole-3-carboxamide]	< 500	189 to 193
CC(C)NS(=O)(=O)c1ccc(-c2c(C#N)c3ccc(OC(F)(F)F)cc3n2CC2CC2)nc1 [compound 11, 6-[3-cyano-1-(cyclopropylmethyl)-6-(trifluoromethoxy)-1H-indol-2-yl]-N-(propan-2-yl)pyridine-3-sulfonamide]	500 to 2000	203 to 205
Cc1cc2c(cc1F)c(C#N)c(-c1ccc(S(=O)(=O)NC(CF)CF)cn1)n2C1CCC1 [compound 108, 6-(3-cyano-1-cyclobutyl-5-fluoro-6-methyl-1H-indol-2-yl)-N-(1,3-difluoropropan-2-yl)pyridine-3-sulfonamide]	< 500	186 to 188
Cc1cc(F)c2c(C#N)c(-c3ccc(S(=O)(=O)N[C@@H](C)C(F)(F)F)cn3)n(C3CCC3)c2c1 [compound 627, 6-(3-cyano-1-cyclobutyl-4-fluoro-6-methyl-1H-indol-2-yl)-N-[(2S)-1,1,1-trifluoropropan-2-yl]pyridine-3-sulfonamide]	< 500	205 to 210
C[C@H](NS(=O)(=O)c1cnc(-c2c(C#N)c3ccc(Cl)cc3n2C2CCCC2)nc1)C(F)(F)F [compound 417, 2-(6-chloro-3-cyano-1-cyclopentyl-1H-indol-2-yl)-N-[(2S)-1,1,1-trifluoropropan-2-yl]pyrimidine-5-sulfonamide]	500 to 2000	220 to 224
CC(C)NS(=O)(=O)c1cnc(-c2c(C#N)c3ccc(C4CC4)cc3n2C2CCCC2)nc1 [compound 125, 2-(3-cyano-1-cyclopentyl-6-cyclopropyl-1H-indol-2-yl)-N-(propan-2-yl)pyrimidine-5-sulfonamide]	< 500	211 to 212
